In general, pIC50 refers to the IC50 on a negative log10 scale, so that one unit is a factor of ten.

The structures appear in SMILES notation. pIC50: −log10 of the molar value.

In assay [1] the target is T1, AHR (Homo sapiens, UniProt P35869).
T1 sequence (P35869 11-848): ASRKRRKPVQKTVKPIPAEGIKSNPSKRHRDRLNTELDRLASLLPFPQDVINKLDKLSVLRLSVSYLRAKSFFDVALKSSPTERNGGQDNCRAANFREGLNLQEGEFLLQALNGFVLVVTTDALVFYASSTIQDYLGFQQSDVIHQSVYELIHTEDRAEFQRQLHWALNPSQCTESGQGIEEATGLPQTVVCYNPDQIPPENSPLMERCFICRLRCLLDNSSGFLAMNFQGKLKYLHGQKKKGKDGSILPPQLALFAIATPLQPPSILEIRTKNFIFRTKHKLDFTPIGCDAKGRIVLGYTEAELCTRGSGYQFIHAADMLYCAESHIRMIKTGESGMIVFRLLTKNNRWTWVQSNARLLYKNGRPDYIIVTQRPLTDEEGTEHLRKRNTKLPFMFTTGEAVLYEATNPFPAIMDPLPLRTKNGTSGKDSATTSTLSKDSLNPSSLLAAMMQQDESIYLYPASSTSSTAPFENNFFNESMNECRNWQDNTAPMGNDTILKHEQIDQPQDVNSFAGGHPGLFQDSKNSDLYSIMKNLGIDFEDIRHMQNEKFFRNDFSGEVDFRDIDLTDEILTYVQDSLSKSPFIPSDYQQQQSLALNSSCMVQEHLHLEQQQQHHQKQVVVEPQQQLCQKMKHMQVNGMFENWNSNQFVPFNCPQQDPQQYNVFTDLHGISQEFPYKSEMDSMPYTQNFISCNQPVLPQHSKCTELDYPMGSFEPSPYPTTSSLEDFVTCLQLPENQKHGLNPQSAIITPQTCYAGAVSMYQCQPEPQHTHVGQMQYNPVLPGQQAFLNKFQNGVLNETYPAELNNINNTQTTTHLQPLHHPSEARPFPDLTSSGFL
Briefly: In vitro assay 1: antagonism in human cell line (transactivation assay, U87 cells prestimulated with kynurenic acid, DRE firefly luciferase reporter). The format is cell-based. Also on record: host or cells: U87 glioblastoma cells, stably transfected with DRE firefly luciferase and renilla reporter constructs. Particulars: 150 uM kynurenic acid, 20 hours, read-out: Assay 1: AHR-luc Hum Antagonism IC50. The protocol:
(§1) Transactivation Assay in Human Cell Line (In Vitro Assays 1 and 2)
(§2) Transactivation assays were carried out in U87 glioblastoma cells (ATCC) endogenously expressing AHR. In addition the cells were stably transfected with an AHR inducible firefly luciferase reporter gene construct that carried AHR-binding sites (DRE) in its promoter and a renilla reporter gene construct with constitutively active promoter. Kynurenic acid is an endogenous AHR activating ligand and was used to prestimulate test cells prior to testing the antagonistic properties of compounds.
In Vitro Assay 1: Antagonism in Human Cell Line
Normalization was done by positive and negative controls.
In general terms: Reporter assays use an easily measured gene product as a stand-in for the process of interest.

Assay [2] addresses T1, AHR. Briefly: In vitro assay 2: agonism in human cell line (transactivation assay, U87 cells, DRE firefly luciferase reporter). Particulars: no kynurenic acid, 20 hours, read-out: Assay 2: AHR-luc Hum Agonism IC50. Also on record: host or cells: U87 glioblastoma cells, stably transfected with DRE firefly luciferase and renilla reporter constructs. The format is cell-based. The method, then: as §1, §2
In Vitro Assay 2: Agonism in Human Cell Line
As positive activation control cells were incubated with 300 uM kynurenic acid. Normalization was done by positive and negative controls.

With `Cn1cc(-n2nc(-c3ccc(Cl)cc3)cc(C(=O)N[C@@H]3CCC[C@]3(C)O)c2=O)cn1` (single isomer, unassigned) [Example 336, 6-(4-Chlorophenyl)-N-[(cis)-2-hydroxy-2-methylcyclopentyl]-2-(1-methyl-1H-pyrazol-4-yl)-3-oxo-2,3-dihydropyridazine-4-carboxamide], the pIC50 on AHR [1] was 7.37; on AHR [2] it was under 4.70.

Consider `O=C(NC[C@H](O)C(F)(F)F)c1cc(-c2ccc(CF)cc2)nn(-c2cccnc2)c1=O` [Example 280, 6-[4-(Fluoromethyl)phenyl]-3-oxo-2-(pyridin-3-yl)-N-[(2S)-3,3,3-trifluoro-2-hydroxypropyl]-2,3-dihydropyridazine-4-carboxamide], for which the pIC50 was 6.75 on AHR [1] and under 4.70 at AHR [2].

For `O=C(N[C@H](CO)CF)c1cc(-c2ccc(C(F)(F)F)cc2)nn(-c2cnsc2)c1=O` [Example 203, N-[(2R)-1-Fluoro-3-hydroxypropan-2-yl]-3-oxo-2-(1,2-thiazol-4-yl)-6-[4-(trifluoromethyl)phenyl]-2,3-dihydropyridazine-4-carboxamide], the pIC50 was 9.07 on AHR [1] and under 4.70 on AHR [2].

`CC(C)(O)CNC(=O)c1cc(-c2ccc(Cl)cc2)nn(-c2cnoc2)c1=O` [Example 269, 6-(4-Chlorophenyl)-N-(2-hydroxy-2-methylpropyl)-2-(1,2-oxazol-4-yl)-3-oxo-2,3-dihydropyridazine-4-carboxamide]: the pIC50 at AHR [1] is 7.21; at AHR [2], under 4.70.

As for `C[C@@H](NC(=O)c1cc(-c2ccc(OC(F)(F)F)cc2)nn(-c2cccnc2)c1=O)C(C)(C)O` [Example 294, N-[(2R)-3-Hydroxy-3-methylbutan-2-yl]-3-oxo-2-(pyridin-3-yl)-6-[4-(trifluoromethoxy)phenyl]-2,3-dihydropyridazine-4-carboxamide], the pIC50 is 7.30 on AHR [1] and under 4.70 on AHR [2].

With `O=C(N[C@H](CO)C(F)(F)F)c1cc(-c2ccc(Cl)cc2)nn(-c2cnn(C3CCC3)c2)c1=O` [Example 41, 6-(4-Chlorophenyl)-2-(1-cyclobutyl-1H-pyrazol-4-yl)-3-oxo-N-[(2R)-1,1,1-trifluoro-3-hydroxypropan-2-yl]-2,3-dihydropyridazine-4-carboxamide], the pIC50 on AHR [1] is 5.78; on AHR [2] it was under 4.70.

In the case of `CC(C)(O)CNC(=O)c1cc(-c2ccc(C(F)(F)F)cc2)nn(-c2cnn(C(F)F)c2)c1=O` [Example 262, 2-[1-(Difluoromethyl)-1H-pyrazol-4-yl]-N-(2-hydroxy-2-methylpropyl)-3-oxo-6-[4-(trifluoromethyl)phenyl]-2,3-dihydropyridazine-4-carboxamide], the results for the pIC50 at AHR [1] and at AHR [2] were 7.39 and under 4.70, respectively.

As to `C[C@H](NC(=O)c1cc(-c2ccc(Cl)cc2)nn(-c2cn[nH]c2)c1=O)C(C)(C)O` [Example 276, 6-(4-Chlorophenyl)-N-[(2S)-3-hydroxy-3-methylbutan-2-yl]-3-oxo-2-(1H-pyrazol-4-yl)-2,3-dihydropyridazine-4-carboxamide], the pIC50 on AHR [1] is 6.88; at AHR [2], under 4.70.

On to `CC(C)(O)CNC(=O)c1cc(-c2ccc(Cl)cc2)nn(-c2cncnc2)c1=O` [Example 277, 6-(4-Chlorophenyl)-N-(2-hydroxy-2-methylpropyl)-3-oxo-2-(pyrimidin-5-yl)-2,3-dihydropyridazine-4-carboxamide], for which the values for the pIC50 on AHR [1] and on AHR [2] were 6.86 and under 4.70, respectively.

Consider `CC(C)(O)C(NC(=O)c1cc(-c2ccc(OC(F)(F)F)cc2)nn(-c2cccnc2)c1=O)C(F)(F)F` (centres unmarked) [Example 135, 3-Oxo-2-(pyridin-3-yl)-N-[1,1,1-trifluoro-3-hydroxy-3-methylbutan-2-yl]-6-[4-(trifluoromethoxy)phenyl]-2,3-dihydropyridazine-4-carboxamide], for which the results for the pIC50 on AHR [1] and on AHR [2] were 8.10 and under 4.70, respectively.

For the origin of these results see patent US12522594B2, “2-heteroaryl-3-oxo-2,3-dihydropyridazine-4-carboxamides for the treatment of cancer” (Deutsches Krebsforschungszentrum, priority 2017, dated 2026).
